Test results reported in patent US20190241569A1, “3-(ARYL OR HETEROARYL) METHYLENEINDOLIN-2-ONE DERIVATIVES AS INHIBITORS OF CANCER STEM CELL PATHWAY KINASES FOR THE TREATMENT OF CANCER” (Boston Biomedical, Inc., priority 2013, published 2019).

What was measured:
Format in all cases: cell-based
ACHN = assay: Bulk cancer cells, Cell Titer-Glo 72 hours (Test Example 2); conditions: Homo sapiens, ACHN, 72 h
Protocol: (§1) Tubes of 3× drug (60 uM in 500 uL complete media) were prepared from 5 mM stock solutions in DMSO. […] To treat cells, 50 uL of drug from the dilution plate was removed and added to the cell plates. […] Cells were harvested 72 hours after drug addition using Cell Titer-Glo (Promega) and luminescence measured on a plate reader.

FaDu = assay: as above; conditions: Homo sapiens
Protocol: as §1

FaDu CSC = assay: Cancer stem cells, Cell Titer-Glo 72 hours (Test Example 3); conditions: Homo sapiens, FaDu, 72 h
A549 = assay: Bulk cancer cells, Cell Titer-Glo 72 hours (Test Example 2); conditions: Homo sapiens
Protocol: as §1

Compound	IC50 (ACHN)	IC50 (FaDu)	IC50 (FaDu CSC)	IC50 (A549)
COc1ccc(-c2ccc3c(c2)/C(=C/c2[nH]c(C)cc2C)C(=O)N3)c(C)c1 [Example 263]	24.8 µM	19.8 µM	–	–
Cc1[nH]c(/C=C2\C(=O)Nc3ccc(-c4ccnn4-c4ccccc4)cc32)c(C)c1C(=O)N1CCN(C)CC1 [Example 23]	–	4.55 µM	11.5 µM	–
CCN(CC)CCNC(=O)c1c(C)[nH]c(/C=C2\C(=O)Nc3ccc(-c4cnc(-c5ccccc5)s4)cc32)c1C [Example 54]	–	23.7 µM	–	–
Cc1cc(C)c(/C=C2\C(=O)Nc3ccc(-c4ccc(C=O)cc4)cc32)[nH]1 [Example 262]	–	26.8 µM	–	29.2 µM
CCN(CC)CCNC(=O)c1c(C)[nH]c(/C=C2\C(=O)Nc3ncc(-c4csc(-c5ccccc5)n4)cc32)c1C [Example 116]	–	–	1.6 µM	–
Cc1[nH]c(/C=C2\C(=O)Nc3ncc(-c4csc(-c5ccccc5)n4)cc32)c(C)c1C(=O)N1CCN(C)CC1 [Example 117]	–	39.2 µM	–	–
Cc1[nH]c(/C=C2\C(=O)Nc3ccc(-c4csc(-c5ccncc5)n4)cc32)c(C)c1CCC(=O)O [Example 154]	14.6 µM	–	–	–
CCN(CC)CCNC(=O)c1c(C)[nH]c(/C=C2\C(=O)Nc3ccc(-c4cnc(-c5ccccc5)[nH]4)cc32)c1C [Example 41]	20.6 µM	5.34 µM	–	–
O=C1Nc2ccc(-c3csc(-c4ccccc4)n3)cc2/C1=C/c1cc2ccccc2[nH]1 [Example 159]	–	49.3 µM	–	–
Cc1[nH]c(/C=C2\C(=O)Nc3ccc(-c4cnc(-c5ccccc5)[nH]4)cc32)c(C)c1C(=O)N1CCN(C)CC1 [Example 44]	–	5.54 µM	13.2 µM	–
Cc1cc(C)c(/C=C2\C(=O)Nc3cc(-c4cccc(C#N)c4C)ccc32)[nH]1 [Example 245]	–	–	39.1 µM	–
CCN(CC)CCNC(=O)c1c(C)[nH]c(/C=C2\C(=O)Nc3cnc(-c4csc(-c5ccccc5)n4)cc32)c1C [Example 120]	–	11.2 µM	4.75 µM	–
CCN(CC)CCNC(=O)c1c(C)[nH]c(/C=C2\C(=O)Nc3ccc(-c4nnc(-c5ccccc5)o4)cc32)c1C [Example 53]	–	8.23 µM	21.5 µM	–
Cc1[nH]c(/C=C2\C(=O)Nc3ccc(-c4ncc(-c5ccccc5)o4)cc32)c(C)c1C(=O)N1CCN(C)CC1 [Example 20]	–	–	2.38 µM	–
Cc1ccc(-c2nc(-c3ccc4c(c3)/C(=C/c3[nH]c(C)c(C(=O)N5CCOCC5)c3C)C(=O)N4)cs2)cc1 [Example 105]	–	3.05 µM	–	–
CCN(CC)CCN1CCCc2[nH]c(/C=C3\C(=O)Nc4ccc(-c5csc(-c6ccccc6)n5)cc43)c(C)c2C1=O [Example 176]	–	5.31 µM	–	18 µM
Cc1cc(C)c(/C=C2\C(=O)Nc3ccc(-c4ccc(C(=O)c5ccccc5)cc4)cc32)[nH]1 [Example 260]	21.8 µM	22.4 µM	–	–
CCOC(=O)c1c(C)[nH]c(/C=C2\C(=O)Nc3ccc(-c4csc(-c5ccccc5)n4)cc32)c1C [Example 108]	–	–	20.2 µM	–
CCOC(=O)CCc1ccc(-c2nc(-c3ccc4c(c3)/C(=C/c3[nH]c(C)c(C(=O)NCCN(CC)CC)c3C)C(=O)N4)cs2)cc1 [Example 136]	–	–	2.52 µM	–

Compound	IC50 (ACHN)	IC50 (FaDu)	IC50 (FaDu CSC)	IC50 (A549)
O=C1Nc2ccc(-c3csc(-c4ccncc4)n3)cc2/C1=C/c1ccc(N2CCOCC2)cc1 [Example 173]	–	17.5 µM	–	–
CCOC(=O)CCc1cccc(-c2nc(-c3ccc4c(c3)/C(=C/c3[nH]c(C)c(C(=O)NCCN(CC)CC)c3C)C(=O)N4)cs2)c1 [Example 134]	–	–	2.34 µM	–
Cc1[nH]c(/C=C2\C(=O)Nc3ccc(-c4cnn(-c5ccccc5)c4C)cc32)c(C)c1C(=O)N1CCOCC1 [Example 13]	–	6.76 µM	37.2 µM	–
Cc1[nH]c(/C=C2\C(=O)Nc3ccc(-c4cnn(-c5ccccc5)c4C)cc32)c(C)c1C(=O)NCCN1CCCC1 [Example 28]	–	5.79 µM	1.31 µM	–
Cc1cc(C)c(/C=C2\C(=O)Nc3cc(-c4ccc5ccccc5n4)ccc32)[nH]1 [Example 248]	–	14 µM	–	–
CCN(CC)CCNC(=O)c1c(C)[nH]c(/C=C2\C(=O)Nc3ccc(-c4nc(-c5ccccc5)n[nH]4)cc32)c1C [Example 50]	–	6.16 µM	2.8 µM	–
Cc1cc(C)c(/C=C2\C(=O)Nc3cc(-c4cnc5ccccn45)ccc32)[nH]1 [Example 247]	20.6 µM	19.4 µM	–	–
Cc1[nH]c(/C=C2\C(=O)Nc3ccc(-c4ccnn4-c4ccc(C#N)cc4)cc32)c(C)c1C(=O)N1CCN(C)CC1 [Example 24]	–	–	48.2 µM	–
CCN(CC)CCNC(=O)c1c(C)[nH]c(/C=C2\C(=O)Nc3ccc(C4CCN(c5ncccn5)CC4)cc32)c1C [Example 43]	–	6.47 µM	18.8 µM	–
Cc1[nH]c(/C=C2\C(=O)Nc3ccc(-c4cnn(-c5ccccn5)c4)cc32)c(C)c1C(=O)N1CCOCC1 [Example 30]	–	–	8.94 µM	–
CCN(CC)CCNC(=O)c1[nH]c(/C=C2\C(=O)Nc3ccc(-c4csc(-c5ccccc5)n4)cc32)c2c1CCCC2 [Example 166]	9.91 µM	–	–	–
CCN(CC)CCNC(=O)c1c(C)[nH]c(/C=C2\C(=O)Nc3ccc(-n4cc(-c5ccccc5)nn4)cc32)c1C [Example 49]	7.16 µM	6.58 µM	3 µM	–
O=C1Nc2ccc(-c3csc(-c4ccccc4)n3)cc2/C1=C/c1[nH]c(C(=O)O)c2c1CCCC2 [Example 163]	24.9 µM	–	4.49 µM	–
Cc1cc(C)c(/C=C2\C(=O)Nc3ccc(-c4ccc5ccccc5n4)cc32)[nH]1 [Example 214]	7.44 µM	–	–	–
CCN(CC)CCNC(=O)c1c(C)[nH]c(/C=C2\C(=O)Nc3ccc(-c4oc(-c5ccccc5)nc4C)cc32)c1C [Example 34]	–	–	18.2 µM	–
O=C1Nc2ccc(-c3csc(-c4ccccc4)n3)cc2/C1=C/c1ccc(N2CCNCC2)cc1 [Example 171]	–	2.59 µM	–	5.79 µM
O=C1Nc2ccc(-c3csc(-c4ccncc4)n3)cc2/C1=C/c1ccc(N2CCNCC2)cc1 [Example 170]	–	25.2 µM	–	8.73 µM
Cc1cc(C)c(/C=C2\C(=O)Nc3cc(-c4ccc(-c5ccccc5)nc4)ccc32)[nH]1 [Example 241]	–	–	18.2 µM	–
Cc1cc(C)c(/C=C2\C(=O)Nc3cc(-c4cnc5ccnn5c4)ccc32)[nH]1 [Example 243]	–	–	14.9 µM	–

Continued, values first:

IC50 (ACHN)	IC50 (FaDu)	IC50 (FaDu CSC)	IC50 (A549)	Compound
–	23.2 µM	15.6 µM	–	CC(=O)N1CCC(N2CCC(c3ccc4c(c3)/C(=C/c3[nH]c(C)c(C(=O)N5CCN(C)CC5)c3C)C(=O)N4)CC2)CC1 [Example 46]
–	33.2 µM	–	–	COc1cccnc1-c1ccc2c(c1)/C(=C/c1[nH]c(C)cc1C)C(=O)N2 [Example 222]
–	23.5 µM	–	18.4 µM	Cc1cc(C)c(/C=C2\C(=O)Nc3ccc(-c4nccc5ccccc45)cc32)[nH]1 [Example 219]
–	5.35 µM	2.17 µM	–	CCN(CC)CCNC(=O)c1c(C)[nH]c(/C=C2\C(=O)Nc3ccc(-c4cs/c(=N\c5ccccc5)n4C)cc32)c1C [Example 132]
–	–	23.2 µM	–	CN1CCN(C(=O)c2ccc(/C=C3\C(=O)Nc4ccc(-c5csc(-c6ccccc6)n5)cc43)[nH]c2=O)CC1 [Example 122]
–	1.89 µM	1.3 µM	16 µM	CCN(CC)CCNC(=O)c1c(C)[nH]c(/C=C2\C(=O)Nc3ccc(C4CCN(c5ccccc5)CC4)cc32)c1C [Example 42]
–	12.1 µM	9.35 µM	–	Cc1[nH]c(/C=C2\C(=O)Nc3ccc(-c4cnc(-c5ccccc5)o4)cc32)c(C)c1C(=O)N1CCN(C)CC1 [Example 18]
–	24.8 µM	7.82 µM	–	CCN(CC)CCNC(=O)c1c(C)[nH]c(/C=C2\C(=O)Nc3ccc(-c4csc(-c5cccc(Br)c5)n4)cc32)c1C [Example 127]
–	23.9 µM	–	–	CCN(CC)CCNC(=O)c1c(C)[nH]c(/C=C2\C(=O)Nc3ccc(C4CCN(C5CCOCC5)CC4)cc32)c1C [Example 12]
–	17.3 µM	4.96 µM	–	CCN(CC)CCNC(=O)c1c(C)[nH]c(/C=C2\C(=O)Nc3ccc(-c4ccnn4-c4ccc(C#N)cc4)cc32)c1C [Example 25]
–	35.5 µM	–	–	O=C1Nc2ccc(-c3csc(-c4ccccc4)n3)cc2/C1=C/c1ccc(N2CCOCC2)cc1 [Example 172]
–	–	14.8 µM	–	Cc1[nH]c(/C=C2\C(=O)Nc3ccc(-c4cnn(-c5ccccc5)c4C)cc32)c(C)c1C(=O)N1CCN(C)CC1 [Example 5]
–	3.68 µM	1.33 µM	–	CCN(CC)CCNC(=O)c1c(C)[nH]c(/C=C2\C(=O)Nc3ccc(-c4csc(-c5ccc(Br)cc5)n4)cc32)c1C [Example 125]
–	–	–	0.07 µM	COc1ccc(-c2ccc3c(c2)/C(=C/c2[nH]c(C)cc2C)C(=O)N3)nc1 [Example 227]
5.31 µM	7.87 µM	6.49 µM	–	Cc1cc(C)c(/C=C2\C(=O)Nc3ccc(-c4csc(-c5ccccc5)n4)cc32)[nH]1 [Example 138]
–	23.9 µM	–	–	CCN(CC)CCNC(=O)c1c(C)[nH]c(/C=C2\C(=O)Nc3cc(-c4ccc5cn[nH]c(=O)c5c4)ccc32)c1C [Example 252]
–	–	3.07 µM	–	O=C1Nc2ccc(-c3csc(-c4ccncc4)n3)cc2/C1=C/c1cc2ccccc2[nH]1 [Example 158]
–	4.44 µM	1.64 µM	–	Cc1[nH]c(/C=C2\C(=O)Nc3ccc(-c4ccc(-c5ccccc5)s4)cc32)c(C)c1C(=O)NCCN1CCCC1 [Example 14]
–	46.9 µM	–	–	CCN(CC)CCNC(=O)c1c(C)[nH]c(/C=C2\C(=O)Nc3ccc(-c4csc(-c5ccccn5)n4)cc32)c1C [Example 124]
–	–	33.7 µM	–	O=C1Nc2ccc(-c3csc(-c4ccccc4)n3)cc2/C1=C/c1ccc(C(=O)NCCN2CCOCC2)c(=O)[nH]1 [Example 123]
–	–	5.62 µM	–	Cc1[nH]c(/C=C2\C(=O)Nc3ccc(-c4csc(C5CCNCC5)n4)cc32)c(C)c1C(=O)O [Example 142]
12.2 µM	9.73 µM	41.5 µM	–	CCN(CC)CCNC(=O)c1c(C)[nH]c(/C=C2\C(=O)Nc3ccc(-c4cnc(-c5ccccc5)o4)cc32)c1C [Example 17]
